Results as given in patent publication US9694027B2, “Pyrazole derivative and use thereof for medical purposes” (KISSEI PHARMACEUTICAL CO. LTD., priority 2012, dated 2017).

Experiments:
[1] = test system: rat model of low-fiber diet-induced constipation; test: Rat model of low-fiber diet-induced constipation (Example 2)
Experimental: Compound 2 was weighed and was dissolved in distilled water at preparation concentrations of 3, 10 and 30 mg/mL as the free drug to prepare test compounds.
0.5% methylcellulose (0.5% MC) was used as a vehicle for preparation of lubiprostone. Lubiprostone was weighed and was suspended in 0.5% MC at preparation concentrations of 1, 3 and 10 mg/mL to prepare control substances.
Magnesium sulfate (MgSO4) (Wako pure chemical) was weighed and was dissolved in distilled water at a preparation concentrations of 200 mg/mL to prepare a positive control substance.
A soluble starch, sucrose and lactose monohydrate were weighed at a rate of 6:3:1 and were dissolved in distilled water which was approximately 80% of the amounts of preparation on heating, and then the mixture was added with distilled water to prepare 0.4 g/mL solution of mixed carbohydrate.
A low-fiber diet was prepared based on the literature (Kakino et al. BMC Complementary and Alternative Medicine 2010, 10: 68).
Rats were fed on the low-fiber diet for 1-2 weeks to induce constipation.
Compound 2 (3 mg/kg, 10 mg/kg or 30 mg/kg as free drug), lubiprostone (1 mg/kg, 3 mg/kg or 10 mg/kg), MgSO4 (2000 mg/kg) or a vehicle (distilled water: Control group 1, 0.5% MC: Control group 2) was administered orally at around 9 a.m. using a 1 mL glass syringe and a stomach tube. Then, 0.4 g/mL solution of mixed carbohydrate was administered orally at 2 mL/body to Control group 1 and the groups administered with Compound 2. Distilled water was administered to the normal feed group.
The sum of the fecal weights at the collection times was set as the fecal weight at 24 hours after the administration.
The statistical analysis was made by testing the uniformity of variance using Bartlett's method, and multiple comparison between Control group 1 and the group administered with Compound 2 or Control group 2 and the group administered with lubiprostone was made using Dunnett's method when variance was uniform respectively, and multiple comparison was made using Steel's method when variance was not uniform. In each case, significance level<5% was considered as significant difference.

healthy adult males = test: Multiple-dose study in healthy adult males (Example 4); assay type: in vivo, human
Experimental: Compound 2 at a dose of 2, 5, 10 or 20 mg (free drug equivalent), a placebo, or miglitol at a dose of 50 mg was repetitively administered orally once daily just immediately before breakfast on administration Days 1 and 13, and 3 times daily just immediately before every meal on administration Days 3 to 12 to healthy adult males. For the administration of Compound 2, tablets containing 1, 5 or 10 mg in free drug equivalent were used. The test period was set between administration Day 1 and Day 15. Frequencies of bowel movements were checked during consultation by a doctor, and the adverse events (gastrointestinal disorders) were defined when an abnormal finding (diarrhea or loose stool) was seen based on the stool form and the finding. In this regard, the frequencies of bowel movements in Table 8 show the daily means during fifteen days (time/day).

[2] = test system: Loperamide-induced dog constipation model; test: Loperamide-induced dog constipation model (Example 1); assay type: in vivo; details: for Dry fecal weight within 24 hours after the administration / Wet fecal weight within 24 hours after the administration / Frequency of bowel movement within 24 hours after the administration: mean of 10 dogs; for Dry fecal weight within 24 hours after the administration: Control group 1.0, Normal group 47.1; for Wet fecal weight within 24 hours after the administration: Control group 2.8, Normal group 136.2; for Frequency of bowel movement within 24 hours after the administration: observation at 17, 21, 24 hours, Control group 0.2, Normal group 2.1
Experimental: Lubiprostone (TLC Pharma Chem) was weighed and was suspended in 0.5% methylcellulose at preparation concentrations of 0.05 and 0.35 mg/mL to prepare control substances.
Loperamide hydrochloride (Wako pure chemical) was weighed at 0.3, 0.5, 1.0, 2.0, 4.0 or 8.0 mg/kg for each animal and was filled into a gelatin capsule.
Loperamide hydrochloride which was filled into a gelatin capsule was orally administered to dogs (beagle, male, 13-14 months old, 10 dogs, Kitayama-labesu). The dosage was increased from 0.3 mg/kg, and was set at 2.0, 4.0 or 8.0 mg/kg based on the bowel movement condition of each dog.
Tests were performed as a full cross-over trial. More than 5-day washout period was provided between each test, and a recovery of stool form was identified, and then the next test was performed.
A gelatin capsule which was filled with loperamide hydrochloride was administered orally at around 9 a.m. on the first and second days in each test.
The stool form of feces was scored in seven categories based on Bristol Stool Form Scale. The collected feces were dried fully, and then the feces were weighed, and it was set as the dry fecal weight.

O=S(=O)([O-])[O-].[Mg+2] [MgSO4, Magnesium sulfate] was tested, and the Watery stool ([1]; 2000 mg/kg) was “watery stool was reported”, the “Fecal weight, effect of positive control” value ([1]; 2000 mg/kg oral) was “increase of the fecal weight was also shown” and the “Fecal weight within 24 hours after the administration” value ([1]; 2000 mg/kg oral, positive control, n=4, Control group 1 0.53) was 3.70 g.
In the case of OCCN1C[C@H](O)[C@@H](O)[C@H](O)[C@H]1CO [Miglitol, miglitol, reference compound], the “Daily frequency of bowel movement after the administration, Mean” value (healthy adult males; 50 mg, once daily Days 1 and 13, 3 times daily Days 3 to 12, daily mean during fifteen days, 8 subjects, Placebo 1.0) is reported as 1.0 time/day, the “Number of subject with gastrointestinal disorders: Abdominal pain” value (healthy adult males; multiple dose 50 mg, of 8 subjects, Placebo 0) is reported as 0 and the “Number of subject with gastrointestinal disorders: Diarrhea” value (healthy adult males; multiple dose 50 mg, of 8 subjects, Placebo 3) is reported as 2.
In the case of CCCCC(F)(F)[C@@]1(O)CC[C@H]2[C@@H](CC(=O)[C@@H]2CCCCCCC(=O)O)O1 [lubiprostone, Lubiprostone, reference compound], the “Wet fecal weight, dry weight and frequency of bowel movements versus Control group” value ([2]; 0.1 mg/kg or more, significance level <5%) is reported as “significantly higher than in Control group”, the “Dry fecal weight within 24 hours after the administration” value ([2]; 0.1 mg/kg oral) is reported as 8.3 g and the “Wet fecal weight within 24 hours after the administration” value ([2]; 0.1 mg/kg oral) is reported as 18.7 g. For the same compound, the “Frequency of bowel movement within 24 hours after the administration” value ([2]; 0.1 mg/kg oral) was 0.9 time, the “Dry fecal weight within 24 hours after the administration” value ([2]; 0.7 mg/kg oral) was 21.5 g and the “Wet fecal weight within 24 hours after the administration” value ([2]; 0.7 mg/kg oral) was 55.4 g. For the same compound, the “Frequency of bowel movement within 24 hours after the administration” value ([2]; 0.7 mg/kg oral) was 1.0 time, the “Increases of loose stool and diarrhea” value ([2]; all doses of this test) was “not observed” and the “Dose dependence of wet fecal weight, dry weight and frequency of bowel movements” value ([2]; within 24 hours after oral administration) was “dose-dependently increased”. For the same compound, the “Fecal weight within 24 hours after the administration” value ([1]; 1 mg/kg oral in 0.5% MC, n=5, Control group 2 0.58) was 0.60 g, the “Fecal weight within 24 hours after the administration” value ([1]; 3 mg/kg oral in 0.5% MC, n=5, Control group 2 0.58) was 0.95 g and the “Fecal weight within 24 hours after the administration” value ([1]; 10 mg/kg oral in 0.5% MC, n=5, Control group 2 0.58) was 1.25 g. For the same compound, the “Fecal weight during 24 hours versus Control group” value ([1]; 10 mg/kg, versus Control group 2, significance level <5%) was “significantly higher than in each Control group” and the “Dose dependence of fecal weight during 24 hours after the administration” value ([1]; oral) was “dose-dependently increased”.
